Measurements as given in patent EP0654473A1, “Cyclopropane derivatives and antiviral agents containing the same” (Ajinomoto Co., Inc., priority 1993, dated 1995).
Structures can show the parent of a compound that is named as a salt.

What was measured:
HSV-1 (Tomioka strain) = experiment: Efficacy test by oral administration in HSV-1 infected mice; type: in vivo, CDF-1 mouse; set-up: Survival Ratio after 21 days: unit: %; details: for Average Survival days / Survival Ratio after 21 days: HSV-1 i.p. infected CDF-1 mice; for Survival Ratio after 21 days: 10 mice per group
Method: A 4-week-age male CDF-1 mouse was intraperitoneally infected with HSV-1 (Tomioka strain) in an amount of 2.4 × 10⁵ pfu/mouse. Three hours after the infection, administration of each test compound was started. The test compound was dissolved in 0.2 ml of distilled water for injection use and intragastrically administered via catheter once a day for 5 days in a dose of 0.625, 1.25, or 2.5 µmol/kg/day. Each of the test groups consisted of 10 mice, and the survival ratio after 21 days from the administration and the average survival days were obtained.

[1] = Measurement of oral absorbability (plasma AUC after oral administration); details: in vivo, 0.1 mmol/kg in physiological saline, male ICR mouse, plasma concentration of 9-[1'S,2'R-bis(hydroxymethyl)cyclopropan-1'-yl]methylguanine by HPLC, 15 minutes to 4 hours
Method: Each of the test compounds was dissolved in 0.2 ml of physiological saline and orally administered to 5-week-age male ICR mouse in a dose of 0.1 mmol/kg. After 15 minutes, 30 minutes, 1 hour, 2 hours, or 4 hours from the administration, blood was collected from three mice, respectively, and centrifuged at 3,000 rpm for 10 minutes to obtain a plasma. A 20 % trichloroacetic acid aqueous solution (100 µl) was added to the plasma (100 µl), and the resulting mixture was shaken and then centrifuged at 8,000 rpm for 1 minutes to obtain a supernatant. The concentration of 9-[1'S,2'R-bis(hydroxymethyl)cyclopropan-1'-yl]methylguanine in the supernatant was measured by HPLC and the area under the blood concentration time curve (AUC) was calculated.

[2] = 0.625 µmol/kg/day intragastrically once a day for 5 days
[3] = 1.25 µmol/kg/day intragastrically once a day for 5 days
[4] = 2.5 µmol/kg/day intragastrically once a day for 5 days

Compound | Average Survival days (HSV-1 (Tomioka strain); [2]) | Survival Ratio after 21 days (HSV-1 (Tomioka strain); [2]) | Average Survival days (HSV-1 (Tomioka strain); [3]) | Survival Ratio after 21 days (HSV-1 (Tomioka strain); [3]) | Average Survival days (HSV-1 (Tomioka strain); [4]) | Survival Ratio after 21 days (HSV-1 (Tomioka strain); [4]) | AUC at 4 h [1] | efficacy (HSV-1 (Tomioka strain); in words, compared with 9-[1'S,2'R-bis(hydroxymethyl)cyclopropan-1'-yl]methylguanine)
Nc1nc2c(ncn2C[C@]2(CO)C[C@H]2CO)c(=O)[nH]1 [9-[1'S,2'R-bis(hydroxymethyl)cyclopropan-1'-yl]methylguanine] | 7.8 ± 1.2 days | 0 | 9.4 ± 1.9 days | 0 | 11.3 ± 3.1 days | 60 | 16 µM·h | –
C[C@H](N)C(=O)OC[C@@H]1C[C@@]1(COC(=O)[C@H](C)N)Cn1cnc2c(=O)[nH]c(N)nc21 [Compound of Example 1, 9-[1'S,2'R-bis(O-L-alanyloxymethyl)cyclopropan-1'-yl]methylguanine trihydrochloride] | 9.7 ± 2.7 days | 40 | 14.3 ± 4.1 days | 60 | – | 100 | – | superior efficacy
